Experiments:
[1] = test system: control fibroblasts and fibroblasts from a patient with a mutation on each allele of the POLG gene; assay: Maximum non-toxic concentration on fibroblast cultures (xCELLigence cell index); type: cell-based, human; details: 140 h, 2.5-10 μM tested
Method: Skin fibroblasts from the control and from the patient were cultured in DMEM Galactose (DMEM free of glucose (Life Technologies) supplemented with 10 mM galactose, 10% foetal bovine serum, 200 U/mL penicillin, 200 U/mL streptomycin). Uridine (50 μg/mL) and sodium pyruvate (2.5 mM) were added to the culture medium to maintain the cells expressing a deficiency of the respiratory chain. The cells were incubated in a controlled atmosphere at 37° C. and 5% CO2.
Cell growth of patient and control fibroblasts was measured continuously for 140 h by use of an xCELLigence apparatus (ACEA Biosciences) in 96-well plates. The background noise of the signal was measured with 50 μL of culture medium per well. 50 μL of medium containing 1350 fibroblasts were then added to each well. The impedance measurement was taken every minute for 9 h and then every 15 minutes until the end of analysis.
Clofilium tosylate was diluted in 0.1% DMSO and used at different concentrations (2.5 μM, 5 μM, 10 μM) in a total volume of 50 μL. Toxic concentrations of clofilium tosylate were determined by adding the drug from the point of cell seeding. For each drug concentration and each control, the analysis was carried out in triplicate on 96-well plates. A mathematical algorithm was used to convert the impedance signal into cell index (CI). […]

[2] = test system: neuronal cybrids derived from a MELAS patient (m.3243A>G tRNA^Leu mutation); assay: Lactate production of MELAS neuronal cybrids; type: cell-based, human; details: 300 nM, 48 hours
Method: The increase in the lactate production is the result of a toxicity of the drug used, but also of a mitochondrial dysfunction (energy deficiency) present in MELAS syndrome.
Neuronal cybrid lines carrying the MELAS mutation and the parental control line were grown in sterile culture flasks and incubated at 37° C. with 5% CO2 in a medium composed of DMEM with 1.5 g/L glucose, 2 mM L-glutamine and supplemented with 10% foetal bovine serum as well as uridine (5 μg/ml) and pyruvate (10 μg/mL). The cells were harvested by trypsinisation in exponential phase and were used for subsequent biochemical or molecular mitochondrial analyses.
The MELAS neuronal cybrid line carrying the mutation seemingly in the homoplasmic state (i.e. reaching almost 100% MELAS mutation) and the SHSY-5Y parental control line were used for measurements of enzyme activities. […] These cell pellets were then analysed by spectrophotometry with measurement of the different mitochondrial biochemical activities, particularly the activity of citrate synthase and the activity of complex I of the respiratory chain. […]
The lactate concentration of the culture medium for neuronal cybrid and parental cells was determined by spectrophotometry using an enzymatic kit (Bohringer) on a Hitachi-Roche apparatus (Roche Diagnostics GmbH). […]

## CCCCCCC[N+](CC)(CC)CCCCc1ccc(Cl)cc1.Cc1ccc(S(=O)(=O)[O-])cc1 [clofilium tosylate]
[1]
  maximum approved (non-toxic) concentration: 2.5 µM
[2]
  production of lactate: without increasing

Reference: patent publication US10639287B2, “Compounds for the treatment of mitochondrial diseases” (UNIVERSITE PARIS-SUD, priority 2014, dated 2020)
